According to ChEMBL document CHEMBL4229459, “An efficient synthetic route for preparation of antimycobacterial wollamides and evaluation of their in vitro and in vivo efficacy” (Bioorg Med Chem Lett, 2018):
Values after ≈ are worked out from the molar mass of the structure shown. Residues, ends and D or L forms follow the SMILES beside them.

Tests used:
[1] = test system: Mycobacterium tuberculosis; assay: Antimycobacterial activity against Mycobacterium tuberculosis H37Rv incubated for 6 days under shaking condition by resazurin dye based fluorescence assay; assay type: functional; details: 144 h
HepG2 = assay: Cytotoxicity against human HepG2 cells after 48 hrs by CellTiter-Glo luminescence assay; assay type: cell-based; details: HepG2, 48 h
[2] = test system: Mycobacterium tuberculosis; assay: Antimycobacterial activity against Mycobacterium tuberculosis H37Rv infected in human THP1 cells treated prior to infection measured after 4 days by luciferase reporter gene assay; assay type: functional, organism-based; details: THP-1, 96 h
[3] = Kinetic aqueous solubility of the compound at pH 7.4 phosphate buffered saline after 1 hr by CLND method; assay type: physicochemical; details: read-out: Kinetic_solubility
[4] = Permeability of the compound at pH 7.4 at […] incubated for 3 hrs under shaking condition by HPLC method; assay type: ADME; details: not told, read-out: permeability
[5] = Intrinsic clearance in mouse liver microsomes at […] pretreated for 45 mins followed by NADPH addition by LC-MS/MS analysis; assay type: ADME, microsome
[6] = Intrinsic clearance in human liver microsomes at […] pretreated for 45 mins followed by NADPH addition by LC-MS/MS analysis; assay type: ADME, microsome
Mus musculus [7] = assay: Toxicity in C57BL/6J mouse assessed as behavioral changes at 5 to 25 mg/kg, ip by Irwin test; assay type: organism-based; details: in vivo
Mus musculus [8] = assay: Toxicity in C57BL/6J mouse assessed as body weight loss at 25 mg/kg, ip after 24 hrs by Irwin test; assay type: organism-based; details: in vivo
[9] = Cmax in C57BL/6J mouse at 5 mg/kg, ip; assay type: ADME, organism-based; design: dose 5 mg/kg, route intraperitoneal; details: in vivo
[10] = Cmax in C57BL/6J mouse at 25 mg/kg, ip; assay type: ADME, organism-based; design: dose 25 mg/kg, route intraperitoneal; details: in vivo
[11] = AUC (0 to 6 hrs) in C57BL/6J mouse at 5 mg/kg, ip; assay type: ADME, organism-based; design: dose 5 mg/kg, time < 6 hr, route intraperitoneal; details: in vivo
[12] = AUC (0 to 6 hrs) in C57BL/6J mouse at 25 mg/kg, ip; assay type: ADME, organism-based; design: dose 25 mg/kg, time < 6 hr, route intraperitoneal; details: in vivo
Mus musculus [13] = assay: Dose normalized AUC (0 to 6 hrs) in C57BL/6J mouse at 5 mg/kg, ip; assay type: ADME, organism-based; details: in vivo
Mus musculus [14] = assay: Dose normalized AUC (0 to 6 hrs) in C57BL/6J mouse at 25 mg/kg, ip; assay type: ADME, organism-based; details: in vivo
[15] = test system: Mycobacterium tuberculosis; assay: Antimycobacterial activity against Mycobacterium tuberculosis H37Rv infected in C57BL/6J mouse assessed as log10 CFU reduction in bacterial lung count at 5 mg/kg, ip administered once daily for 8 days measured post last dose relative to control; assay type: functional
[16] = Kinetic aqueous solubility of the compound by charged aerosol detection method; assay type: physicochemical; details: buffer; read-out: Kinetic_solubility
[17] = Permeability of the compound by PAMPA; assay type: ADME; details: read-out: permeability
[18] = Intrinsic clearance in mouse liver microsomes; assay type: ADME, microsome
[19] = Intrinsic clearance in human liver microsomes; assay type: ADME, microsome
[20] = Kinetic aqueous solubility of the compound by CLND method; assay type: physicochemical; details: buffer; read-out: Kinetic_solubility
[21] = test system: Mycobacterium tuberculosis; assay: Antimycobacterial activity against Mycobacterium tuberculosis H37Rv infected in C57BL/6J mouse assessed as log10 CFU reduction in bacterial lung count at 30 mg/kg, po administered once daily for 8 days measured post last dose relative to control; assay type: functional

CC(C)C[C@@H]1NC(=O)[C@H](Cc2c[nH]c3ccccc23)NC(=O)[C@@H](CCCN)NC(=O)[C@H](CC(N)=O)NC(=O)[C@H](C(C)C)NC(=O)[C@@H](CC(C)C)NC1=O (HELM PEPTIDE1{[NCCC[C@@H](N[*:1])C(=O)[*:2]].W.L.[dL].V.N}$PEPTIDE1,PEPTIDE1,1:R1-6:R2$$$V2.0)
MIC [1]: 0.6 µM (≈ 0.444 µg/mL)
IC50 (HepG2): 50.1 µM
IC50 [2]: 1260 nM
solubility kinetic at 1 h [3]: 204 µM (≈ 151 µg/mL)
Papp at 3 h [4]: < 0.65 ×10⁻⁶ cm/s
CLH [5]: < 0.5 mL/min/g
CLH [6]: 0.97 mL/min/g

CC[C@H](C)[C@@H]1NC(=O)[C@@H](CC(C)C)NC(=O)[C@H](CC(C)C)NC(=O)[C@H](Cc2c[nH]c3ccccc23)NC(=O)[C@@H](CCCNC(=N)N)NC(=O)[C@H](CC(N)=O)NC1=O (HELM PEPTIDE1{I.N.[dR].W.L.[dL]}$PEPTIDE1,PEPTIDE1,1:R1-6:R2$$$V2.0)
MIC [1]: 0.6 µM (≈ 0.478 µg/mL)
IC50 (HepG2): 50.1 µM
IC50 [2]: 200 nM
solubility kinetic at 1 h [3]: > 238 µM
CLH [5]: 1.01 mL/min/g
CLH [6]: 7.44 mL/min/g
Activity (Mus musculus [7]): Non-Toxic
Activity (Mus musculus [8]): 10%
Cmax [9]: 1470 ng/mL
Cmax [10]: 3260 ng/mL
AUC(0-t) at 6 h [11]: 6290 ng·h/mL
AUC(0-t) at 6 h [12]: 14700 ng·h/mL
AUC/dose (Mus musculus [13]): 1258.6 ng·h/mL/mg/kg
AUC/dose (Mus musculus [14]): 586.1 ng·h/mL/mg/kg
FC [15]: -0.2

CC(C)C[C@@H]1NC(=O)[C@H](Cc2c[nH]c3ccccc23)NC(=O)[C@@H](CCCN)NC(=O)[C@H](CC(=O)NCc2ccccc2)NC(=O)[C@H](C(C)C)NC(=O)[C@@H](CC(C)C)NC1=O
MIC [1]: 10 µM (≈ 8.3 µg/mL)
IC50 (HepG2): 39.8 µM
solubility kinetic [16]: > 353 µM
Papp [17]: < 1 ×10⁻⁶ cm/s
CLH [18]: 0.73 mL/min/g
CLH [19]: 0.88 mL/min/g

CC(C)C[C@@H]1NC(=O)[C@H](Cc2c[nH]c3ccccc23)NC(=O)[C@@H](CCCN)NC(=O)[C@H](CC(=O)NC2CCCCC2)NC(=O)[C@H](C(C)C)NC(=O)[C@@H](CC(C)C)NC1=O
MIC [1]: 5 µM (≈ 4.11 µg/mL)
IC50 (HepG2): 50.1 µM

CC(C)C[C@@H]1NC(=O)[C@H](Cc2c[nH]c3ccccc23)NC(=O)[C@@H](CCCN)NC(=O)[C@H](CC(=O)N2CCCCC2)NC(=O)[C@H](C(C)C)NC(=O)[C@@H](CC(C)C)NC1=O
MIC [1]: 20 µM (≈ 16.2 µg/mL)
IC50 (HepG2): > 100 µM
solubility kinetic [16]: 107 µM (≈ 86.5 µg/mL)
Papp [17]: < 1 ×10⁻⁶ cm/s
CLH [18]: < 0.48 mL/min/g
CLH [19]: 1.9 mL/min/g

CC(C)C[C@@H]1NC(=O)[C@H](Cc2c[nH]c3ccccc23)NC(=O)[C@@H](CCCN)NC(=O)[C@H](CC(=O)N2CCC(Oc3ccc(OC(F)(F)F)cc3)CC2)NC(=O)[C@H](C(C)C)NC(=O)[C@@H](CC(C)C)NC1=O
MIC [1]: > 80 µM
IC50 (HepG2): 31.6 µM
solubility kinetic at 1 h [3]: 20 µM (≈ 19.7 µg/mL)
Papp [17]: 8.7 ×10⁻⁶ cm/s
CLH [18]: < 0.48 mL/min/g
CLH [19]: 0.4 mL/min/g

CC[C@H](C)[C@@H]1NC(=O)[C@@H](CC(C)C)NC(=O)[C@H](CC(C)C)NC(=O)[C@H](Cc2c[nH]c3ccccc23)NC(=O)[C@@H](CCCN)NC(=O)[C@H](CC(N)=O)NC1=O
MIC [1]: 1.1 µM (≈ 0.829 µg/mL)
IC50 (HepG2): 50.1 µM
IC50 [2]: 800 nM
solubility kinetic at 1 h [3]: > 235 µM
Papp at 3 h [4]: < 1 ×10⁻⁶ cm/s
CLH [18]: < 0.48 mL/min/g
CLH [6]: 1.87 mL/min/g
Activity (Mus musculus [7]): Non-Toxic
Activity (Mus musculus [8]): 10%
Cmax [9]: 2170 ng/mL
Cmax [10]: 6330 ng/mL
AUC(0-t) at 6 h [11]: 4780 ng·h/mL
AUC(0-t) at 6 h [12]: 26600 ng·h/mL
AUC/dose (Mus musculus [13]): 957 ng·h/mL/mg/kg
AUC/dose (Mus musculus [14]): 1063.8 ng·h/mL/mg/kg
FC [15]: -0.2

CC[C@@H](C)[C@@H]1NC(=O)[C@@H](CC(C)C)NC(=O)[C@H](CC(C)C)NC(=O)[C@H](Cc2c[nH]c3ccccc23)NC(=O)[C@@H](CCCN)NC(=O)[C@H](CC(N)=O)NC1=O
MIC [1]: 1.1 µM (≈ 0.829 µg/mL)
IC50 (HepG2): 50.1 µM
IC50 [2]: 800 nM
solubility kinetic [20]: 177 µM (≈ 133 µg/mL)
Papp [17]: < 1 ×10⁻⁶ cm/s
CLH [18]: < 0.48 mL/min/g
CLH [19]: 0.87 mL/min/g

COc1c(N2C[C@@H]3CCCN[C@@H]3C2)c(F)cc2c(=O)c(C(=O)O)cn(C3CC3)c12 [MOXIFLOXACIN]
FC [21]: 3.4

CCCCNC(=O)C[C@@H]1NC(=O)[C@H](C(C)C)NC(=O)[C@@H](CC(C)C)NC(=O)[C@H](CC(C)C)NC(=O)[C@H](Cc2c[nH]c3ccccc23)NC(=O)[C@@H](CCCN)NC1=O
MIC [1]: 10 µM (≈ 7.96 µg/mL)
IC50 (HepG2): 63.1 µM
solubility kinetic [16]: 146 µM (≈ 116 µg/mL)
Papp [17]: < 1 ×10⁻⁶ cm/s
CLH [18]: 1.19 mL/min/g
CLH [19]: 1.69 mL/min/g
